From patent US20130158063A1, “Compounds, Compositions and Methods Related to PPAR Antagonists” (GEORGETOWN UNIVERSITY, priority 2010, published 2013)

Tests used:
PPARγ [1] = target: T1, PPARγ (Homo sapiens, UniProt P37231); experiment: Fluorescent Polarization (FP) binding assay with corepressor peptides, PPARγ; conditions: for EC50 / Binding assay EC50, γ: FP assay, Nb = no binding; for EC50: read-out: Binding assay EC50, γ
T1 construct: purchased Cayman Chemicals
T1 sequence (P37231 238-503 limits assumed): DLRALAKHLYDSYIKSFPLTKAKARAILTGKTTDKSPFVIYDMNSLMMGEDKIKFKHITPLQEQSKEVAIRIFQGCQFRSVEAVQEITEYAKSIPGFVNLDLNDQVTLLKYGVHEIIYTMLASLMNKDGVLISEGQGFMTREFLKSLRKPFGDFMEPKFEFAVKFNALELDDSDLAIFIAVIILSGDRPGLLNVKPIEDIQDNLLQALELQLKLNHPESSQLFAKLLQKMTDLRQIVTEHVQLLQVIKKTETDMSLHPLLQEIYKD
Description: (§1) For PPARγ screening, a fluorescent ligand supplied by Cayman Chemicals was also used. All compounds were dissolved in DMSO as 10 mM stock solutions and the final DMSO content in the assay was <1%. A TECAN Ultra 485 multi-functional microplate reader and GraphPad prism 4 software were used for measurements and analysis, respectively.
(§2) PPAR antagonists are expected to enhance the affinities of the corepressor peptides, and therefore, FP should increase as the compound concentration increases. Agonists would be expected to weaken the affinity of the same co-repressor peptide. Although this effect occurs for PPARγ, the dissociation of corepressor peptides varies for PPARα and PPARδ due to altered presentations of the overlapping coactivator/corepressor binding surfaces (Stanley T. B. et al. Biochemistry 42:9278-87, 2003). Compounds were screened initially against PPARγ and PPARδ at 1 and 100 μM. If binding was observed, titration experiments from 10 nM to 100 μM were carried out in triplicate with all three PPARs. […] For screening, either enhancement or weakening of FP was considered active.
(§3) Virtual screening for PPARγ was conducted against 56,000 compounds from the Maybridge library that targeted the ligand binding domain (LBD) of PPARγ, and 10 conformations of each compound were docked to the LBD using Autdock4 software (Scripps Institute). Sixty of the top ranked compounds were ordered from Maybridge, and 58 were available for evaluation. Fluorescent Polarization (FP) assays were established with the tagged co-repressor peptides NCoR1 and SMRT, the recombinant PPARα and PPARγ ligand-binding domains and full-length PPARδ. […] Sd-107 and its analogs are disclosed herein. The chemical structure is shown below.

PPARα [2] = experiment: PPAR reporter assay in 293T cells, PPARα (agonist WY14643); format: cell-based; conditions: 1 μM agonist WY14643
PPARα, PPARγ, PPARδ = experiment: PPAR reporter assays, isotype profile over the three PPARs; conditions: for PPAR inhibitor type (Table 1): from reporter data
PPARγ [3] = target: T2, PPARγ (Mus musculus, UniProt P37238); experiment: PPAR reporter assay in 293T cells, PPARγ (agonist GW7845); format: cell-based; conditions: HEK-293T, 1 μM agonist GW7845, 293T cells, read-out: Reporter assay (% inhibition), γ; for inhibition at 1 µM: 1 μM compound; for inhibition at 10 µM: 10 μM compound; for inhibition at 25 µM: 25 μM compound; for inhibition at 2.5 µM: 2.5 μM compound
T2 construct: expressed in transfected cells; host or cells: 293T cells
T2 sequence (P37238 1-505): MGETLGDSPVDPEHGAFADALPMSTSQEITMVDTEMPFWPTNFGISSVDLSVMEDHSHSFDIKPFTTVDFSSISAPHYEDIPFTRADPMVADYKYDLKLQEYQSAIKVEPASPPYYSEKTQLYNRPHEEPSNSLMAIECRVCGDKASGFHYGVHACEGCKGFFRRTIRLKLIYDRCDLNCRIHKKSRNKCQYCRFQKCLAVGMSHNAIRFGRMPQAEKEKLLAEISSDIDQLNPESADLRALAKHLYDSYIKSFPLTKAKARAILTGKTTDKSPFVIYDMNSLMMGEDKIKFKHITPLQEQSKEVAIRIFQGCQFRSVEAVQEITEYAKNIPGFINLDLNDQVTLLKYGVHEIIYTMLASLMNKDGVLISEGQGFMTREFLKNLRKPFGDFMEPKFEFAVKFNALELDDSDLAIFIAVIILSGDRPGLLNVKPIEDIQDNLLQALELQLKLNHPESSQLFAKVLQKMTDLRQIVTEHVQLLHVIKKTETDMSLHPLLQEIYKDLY

PPARδ [4] = target: T3, PPARδ (Homo sapiens, UniProt Q03181); experiment: Fluorescent Polarization (FP) binding assay with corepressor peptides, PPARδ; conditions: Nb = no binding
T3 construct: purchased Cayman Chemicals
T3 sequence (Q03181 1-441): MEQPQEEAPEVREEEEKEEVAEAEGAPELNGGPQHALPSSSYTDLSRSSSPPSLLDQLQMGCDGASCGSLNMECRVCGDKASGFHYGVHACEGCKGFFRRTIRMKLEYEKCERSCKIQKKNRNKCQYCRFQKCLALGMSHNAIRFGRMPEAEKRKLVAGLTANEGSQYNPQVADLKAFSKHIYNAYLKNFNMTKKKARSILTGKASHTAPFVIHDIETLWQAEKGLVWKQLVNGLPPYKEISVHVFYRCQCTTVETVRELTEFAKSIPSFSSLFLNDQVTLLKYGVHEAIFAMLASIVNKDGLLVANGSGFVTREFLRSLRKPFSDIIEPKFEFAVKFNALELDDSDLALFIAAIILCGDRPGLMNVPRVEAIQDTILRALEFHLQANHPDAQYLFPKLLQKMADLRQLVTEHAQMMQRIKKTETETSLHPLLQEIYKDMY
Description: as §1, §2, §3

PPARδ [5] = experiment: PPAR reporter assay in 293T cells, PPARδ (agonist GW501516); format: cell-based; conditions: 1 μM agonist GW501516
PPARα [6] = target: T4, PPARα (Homo sapiens, UniProt Q07869); experiment: Fluorescent Polarization (FP) binding assay with corepressor peptides, PPARα; conditions: Nb = no binding
T4 construct: purchased Cayman Chemicals
T4 sequence (Q07869 239-466 limits assumed): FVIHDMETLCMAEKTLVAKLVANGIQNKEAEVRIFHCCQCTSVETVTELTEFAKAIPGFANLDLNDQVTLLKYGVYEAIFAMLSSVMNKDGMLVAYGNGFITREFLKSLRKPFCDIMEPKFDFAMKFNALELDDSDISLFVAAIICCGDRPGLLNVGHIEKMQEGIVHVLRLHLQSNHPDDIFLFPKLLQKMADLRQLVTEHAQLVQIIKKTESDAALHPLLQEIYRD
Description: as §1, §2, §3

| Compound | EC50 (PPARγ [1]) [µM] | Reporter assay (% inhibition), α (PPARα [2]; 1 μM compound) [%] | Reporter assay (% inhibition), α (PPARα [2]; 10 μM compound) [%] | Reporter assay (% inhibition), α (PPARα [2]; 25 μM compound) [%] | PPAR inhibitor type (Table 1) (PPARα, PPARγ, PPARδ) | inhibition at 1 µM (PPARγ [3]) [%] | inhibition at 10 µM (PPARγ [3]) [%] | inhibition at 25 µM (PPARγ [3]) [%] | Binding assay EC50, δ (PPARδ [4]) | Reporter assay (% inhibition), δ (PPARδ [5]; 1 μM compound) | Reporter assay (% inhibition), δ (PPARδ [5]; 10 μM compound) [%] | Reporter assay (% inhibition), δ (PPARδ [5]; 25 μM compound) [%] | Binding assay EC50, α (PPARα [6]) | further results |
| --- | --- | --- | --- | --- | --- | --- | --- | --- | --- | --- | --- | --- | --- | --- |
| O=C1NN(c2cccc(F)c2)C(=O)/C1=C\c1ccc(-c2ccc(S(=O)(=O)Nc3ncco3)cc2)o1 [Sd-107-10] | 0.56 | 0 | 0 | 20 | PPARγ inhibitor | 0 | 40 | 85 | δ nb | 0% | 0 | 10 | nb | PPAR isotype selectivity in reporter assays (PPARα, PPARγ, PPARδ; inhibition of activation by 1 μM agonist): greatest selectivity for PPARγ |
| COc1ccc(S(=O)(=O)N(C(=O)c2ccc(Cl)cc2)N(C(=O)c2ccc(Cl)cc2)C(=O)c2ccc(Cl)cc2)cc1 [YL-1-38-1] | 40.8 | 0 | 15 | 40 | Pan inhibitor | 0 | 50 | 75 | δ nb | 0% | 0 | 47 | nb | Effect on FP of corepressor peptide, PPARγ (PPARγ [1]; FIG. 3): weakened the affinity of the peptide to PPARγ; Selectivity of binding in FP assay (PPARγ [1]; titration with all three PPARs): selective binding to PPARγ; Reporter assay (% inhibition), α (PPARα [2]; 2.5 μM compound): 0%; inhibition at 2.5 µM (PPARγ [3]): 16%; Reporter assay (% inhibition), δ (PPARδ [5]; 2.5 μM compound): 0% |
| CC(C)(C)c1ccc(S(=O)(=O)N(C(=O)c2ccc(Cl)cc2)N(C(=O)c2ccc(Cl)cc2)C(=O)c2ccc(Cl)cc2)cc1 [YL-1-68-1] |  | 0 | 0 | 17 | PPARγ/δ inhibitor | 0 | 50 | 75 | δ nb | 0% | 0 | 47 | α nb γ nb | Binding assay EC50, γ (PPARγ [1]): α nb γ nb; inhibition at 2.5 µM (PPARγ [3]): 16%; Reporter assay (% inhibition), δ (PPARδ [5]; 2.5 μM compound): 0% |
| CC(C)(C)c1ccc(S(=O)(=O)N(NC(=O)c2ccc(Cl)cc2)C(=O)c2ccc(Cl)cc2)cc1 [YL-1-68-2] | 1.4 | 16 | 23 | 57 | Pan inhibitor | 0 | 23 | 67 | δ nb | 0% | 18 | 46 | nb |  |
| CC(C)(C)c1ccc(C(=O)N(N)S(=O)(=O)c2ccc(C(C)(C)C)cc2)cc1 [YL-1-69] |  | 0 | 15 | 20 | Pan inhibitor | 0 | 25 | 50 | δ nb | 0% | 10 | 20 | α nb γ nb | Binding assay EC50, γ (PPARγ [1]): α nb γ nb |
| CC(C)(C)c1ccc(C(=O)N(NC(=O)c2ccc(Cl)cc2)S(=O)(=O)c2ccc(C(C)(C)C)cc2)cc1 [YL-1-80] | 9.2 | 0 | 24 | 53 | Pan inhibitor | 18 | 58 | 79 | δ nb | δ 12% | 31 | 64 | nb | Competition in FPA of PPARγ with fluorescent labeled NCoR peptide probe (PPARγ [1]; FIG. 17, YL-1-80 analogs): best competition |
| O=C(NN(C(=O)c1ccc(Cl)cc1)S(=O)(=O)c1ccc(C(F)(F)F)cc1)c1ccc(Cl)cc1 [YL-1-81] | 15.2 |  |  | 8 | PPARγ/δ inhibitor |  |  | 32 | δ nb |  |  | 46 | nb |  |
